Assay results as given in patent US10640497B2, “Microbiocidal oxadiazole derivatives” (SYNGENTA PARTICIPATIONS AG, priority 2015, dated 2020).

Tests used:
[1] = system: Puccinia recondita f. sp. tritici; experiment: Fungicidal activity against Puccinia recondita f. sp. tritici, wheat, leaf disc curative (brown rust); type: in vivo; conditions: foliar, 144 h, wheat leaf segments, curative (applied 1 day after inoculation), 6-8 days after application, compared to untreated control
Method: (§1) Leaf disks or leaf segments of various plant species are cut from plants grown in a greenhouse. The cut leaf disks or segments are placed in multiwell plates (24-well format) onto water agar. The leaf disks are sprayed with a test solution before (preventative) or after (curative) inoculation. Compounds to be tested are prepared as DMSO solutions (max. 10 mg/ml) which are diluted to the appropriate concentration with 0.025% Tween20 just before spraying. The inoculated leaf disks or segments are incubated under defined conditions (temperature, relative humidity, light, etc.) according to the respective test system. A single evaluation of disease level is carried out 3 to 14 days after inoculation, depending on the pathosystem. Percent disease control relative to the untreated check leaf disks or segments is then calculated. Wheat leaf segments cv. Kanzler are placed on agar in multiwell plates (24-well format). The leaf segments are inoculated with a spore suspension of the fungus. Plates are stored in darkness at 19° C. and 75% rh. The formulated test compound diluted in water is applied 1 day after inoculation. The leaf segments are incubated at 19° C. and 75% rh under a light regime of 12 h light/12 h darkness in a climate cabinet and the activity of a compound is assessed as percent disease control compared to untreated when an appropriate level of disease damage appears in untreated check leaf segments (6-8 days after application).

[2] = system: Puccinia recondita f. sp. tritici; experiment: Fungicidal activity against Puccinia recondita f. sp. tritici, wheat, leaf disc preventative (brown rust); type: in vivo; conditions: foliar, wheat leaf segments, preventative (inoculated 1 day after application), 7-9 days after application, compared to untreated control
Method: as §1, with “plates (24-well format) and sprayed with the formulated test compound diluted in water. The leaf” for “plates (24-well format). The leaf”, “of the fungus 1 day” for “of the fungus. Plates are stored in darkness at 19° C. and 75% rh. The formulated test compound diluted in water is applied 1 day”, “day after application. The inoculated” for “day after inoculation. The leaf”, “application. The inoculated leaf segments” for “inoculation. The leaf segments”, “leaf segments (7-9 days after” for “leaf segments (6-8 days after”

Phakopsora pachyrhizi = experiment: Fungicidal activity against Phakopsora pachyrhizi, soybean, leaf disc preventative (Asian soybean rust); type: in vivo; conditions: foliar, 288 h, 12-14 days after application, compared to untreated control
Method: Leaf disks or leaf segments of various plant species are cut from plants grown in a greenhouse. The cut leaf disks or segments are placed in multiwell plates (24-well format) onto water agar. The leaf disks are sprayed with a test solution before (preventative) or after (curative) inoculation. Compounds to be tested are prepared as DMSO solutions (max. 10 mg/ml) which are diluted to the appropriate concentration with 0.025% Tween20 just before spraying. The inoculated leaf disks or segments are incubated under defined conditions (temperature, relative humidity, light, etc.) according to the respective test system. A single evaluation of disease level is carried out 3 to 14 days after inoculation, depending on the pathosystem. Percent disease control relative to the untreated check leaf disks or segments is then calculated. Soybean leaf disks are placed on water agar in multiwell plates (24-well format) and sprayed with the formulated test compound diluted in water. One day after application leaf discs are inoculated by spraying a spore suspension on the lower leaf surface. After an incubation period in a climate cabinet of 24-36 hours in darkness at 20° C. and 75% rh leaf disc are kept at 20° C. with 12 h light/day and 75% rh. The activity of a compound is assessed as percent disease control compared to untreated when an appropriate level of disease damage appears in untreated check leaf disks (12-14 days after application).

[3] = system: Glomerella lagenarium (Colletotrichum lagenarium); experiment: Fungicidal activity against Glomerella lagenarium (Colletotrichum lagenarium), liquid culture, cucumber, preventative (anthracnose); type: cell-based; conditions: Colletotrichum orbiculare, liquid culture (PDB), growth inhibition measured photometrically 3-4 days after application, compared to untreated control
Method: Mycelia fragments or conidia suspensions of a fungus, prepared either freshly from liquid cultures of the fungus or from cryogenic storage, are directly mixed into nutrient broth. DMSO solutions of the test compound (max. 10 mg/ml) is diluted with 0.025% Tween20 by a factor of 50 and 10 μl of this solution is pipetted into a microtiter plate (96-well format). The nutrient broth containing the fungal spores/mycelia fragments is then added to give an end concentration of the tested compound. The test plates are incubated in the dark at 24° C. and 96% relative humidity. The inhibition of fungal growth is determined photometrically after 2 to 7 days, depending on the pathosystem, and percent antifungal activity relative to the untreated check is calculated. Conidia of the fungus from cryogenic storage are directly mixed into nutrient broth (PDB potato dextrose broth). After placing a (DMSO) solution of test compound into a microtiter plate (96-well format), the nutrient broth containing the fungal spores is added. The test plates are incubated at 24° C. and the inhibition of growth is measured photometrically 3-4 days after application.

SMILES | pest or weed control at 200 ppm [1] | pest or weed control at 200 ppm [2] | pest or weed control at 200 ppm (Phakopsora pachyrhizi) | inhibition of growth at 20 ppm [3]
O=C1CCCN1Cc1ccc(-c2noc(C(F)(F)F)n2)cc1 [Compound A-1, 1-[[4-[5-(trifluoromethyl)-1,2,4-oxadiazol-3-yl]phenyl]methyl]pyrrolidin-2-one] | ≥ 80% | ≥ 80% | ≥ 80% | ≥ 80%
O=C1CCCCN1Cc1ccc(-c2noc(C(F)(F)F)n2)cc1 [Compound A-2, 1-[[4-[5-(trifluoromethyl)-1,2,4-oxadiazol-3-yl]phenyl]methyl]piperidin-2-one] | ≥ 80% | ≥ 80% | ≥ 80% | 
O=C1COCCN1Cc1ccc(-c2noc(C(F)(F)F)n2)cc1 [Compound A-3, 4-[[4-[5-(trifluoromethyl)-1,2,4-oxadiazol-3-yl]phenyl]methyl]morpholin-3-one] | ≥ 80% | ≥ 80% | ≥ 80% | 
CC1(C)CON(Cc2ccc(-c3noc(C(F)(F)F)n3)cc2)C1=O [Compound A-4, 4,4-dimethyl-2-[[4-[5-(trifluoromethyl)-1,2,4-oxadiazol-3-yl]phenyl]methyl]isoxazolidin-3-one] | ≥ 80% | ≥ 80% | ≥ 80% | ≥ 80%
CC1(C)CC(=O)N(Cc2ccc(-c3noc(C(F)(F)F)n3)cc2)O1 [Compound A-6, 5,5-dimethyl-2-[[4-[5-(trifluoromethyl)-1,2,4-oxadiazol-3-yl]phenyl]methyl]isoxazolidin-3-one] | ≥ 80% | ≥ 80% | ≥ 80% | ≥ 80%
CC1CC(=O)N(Cc2ccc(-c3noc(C(F)(F)F)n3)cc2)C1 (centres unmarked) [Compound A-8, 4-methyl-1-[[4-[5-(trifluoromethyl)-1,2,4-oxadiazol-3-yl]phenyl]methyl]pyrrolidin-2-one] | ≥ 80% | ≥ 80% | ≥ 80% | ≥ 80%
O=C1CCCN1Cc1ccc(-c2noc(C(F)(F)F)n2)cn1 [Compound A-28, 1-[[5-[5-(trifluoromethyl)-1,2,4-oxadiazol-3-yl]-2-pyridyl]methyl]pyrrolidin-2-one] | ≥ 80% | ≥ 80% |  | ≥ 80%
COCC(=O)N1CCN(Cc2ccc(-c3noc(C(F)(F)F)n3)cc2)C(=O)C1 [Compound A-31, 4-(2-methoxyacetyl)-1-[[4-[5-(trifluoromethyl)-1,2,4-oxadiazol-3-yl]phenyl]methyl]piperazin-2-one] | ≥ 80% | ≥ 80% |  | ≥ 80%
O=C1CNCCN1Cc1ccc(-c2noc(C(F)(F)F)n2)cc1 [Compound A-36, 1-[[4-[5-(trifluoromethyl)-1,2,4-oxadiazol-3-yl]phenyl]methyl]piperazin-4-ium-2-one; chloride] |  | ≥ 80% |  | 
O=C1CCCCN1Cc1ccc(-c2noc(C(F)(F)F)n2)c(F)c1 [Compound A-44, 1-[[3-fluoro-4-[5-(trifluoromethyl)-1,2,4-oxadiazol-3-yl]phenyl]methyl]piperidin-2-one] | ≥ 80% | ≥ 80% |  | ≥ 80%
O=C1OCCN1Cc1ccc(-c2noc(C(F)(F)F)n2)cc1 [Compound A-45, 3-[[4-[5-(trifluoromethyl)-1,2,4-oxadiazol-3-yl]phenyl]methyl]oxazolidin-2-one] | ≥ 80% | ≥ 80% |  | ≥ 80%
CC1(C)CCCN(Cc2ccc(-c3noc(C(F)(F)F)n3)nc2)C1=O [Compound A-52, 3,3-dimethyl-1-[[6-[5-(trifluoromethyl)-1,2,4-oxadiazol-3-yl]-3-pyridyl]methyl]piperidin-2-one] |  |  |  | ≥ 80%
CS(=O)(=O)N1CC(=O)N(Cc2ccc(-c3noc(C(F)(F)F)n3)cc2)C(=O)C1 [Compound A-59, 4-methylsulfonyl-1-[[4-[5-(trifluoromethyl)-1,2,4-oxadiazol-3-yl]phenyl]methyl]piperazine-2,6-dione] |  | ≥ 80% | ≥ 80% | ≥ 80%
CN(C)S(=O)(=O)N1CC(=O)N(Cc2ccc(-c3noc(C(F)(F)F)n3)cc2)C(=O)C1 [Compound A-60, N,N-dimethyl-3,5-dioxo-4-[[4-[5-(trifluoromethyl)-1,2,4-oxadiazol-3-yl]phenyl]methyl]piperazine-1-sulfonamide] |  | ≥ 80% | ≥ 80% | 
O=C1CNCC(=O)N1Cc1ccc(-c2noc(C(F)(F)F)n2)cc1 [Compound A-61, 1-[[4-[5-(trifluoromethyl)-1,2,4-oxadiazol-3-yl]phenyl]methyl]piperazin-4-ium-2,6-dione; chloride] |  |  |  | ≥ 80%
O=C1CCCN1Cc1ccc(-c2noc(C(F)(F)F)n2)c(F)c1 [Compound A-63, 1-[[3-fluoro-4-[5-(trifluoromethyl)-1,2,4-oxadiazol-3-yl]phenyl]methyl]pyrrolidin-2-one] | ≥ 80% | ≥ 80% |  | ≥ 80%
CC1(C)CON(Cc2ccc(-c3noc(C(F)(F)F)n3)c(F)c2)C1=O [Compound A-64, 2-[[3-fluoro-4-[5-(trifluoromethyl)-1,2,4-oxadiazol-3-yl]phenyl]methyl]-4,4-dimethyl-isoxazolidin-3-one] |  | ≥ 80% |  | ≥ 80%
O=S1(=O)CCCN1Cc1ccc(-c2noc(C(F)(F)F)n2)cc1Cl [Compound B-2, 2-[[2-chloro-4-[5-(trifluoromethyl)-1,2,4-oxadiazol-3-yl]phenyl]methyl]-1,2-thiazolidine 1,1-dioxide] |  | ≥ 80% |  | ≥ 80%
CN1CCCN(Cc2ccc(-c3noc(C(F)(F)F)n3)cc2)S1(=O)=O [Compound B-3, 2-methyl-6-[[4-[5-(trifluoromethyl)-1,2,4-oxadiazol-3-yl]phenyl]methyl]-1,2,6-thiadiazinane 1,1-dioxide] | ≥ 80% | ≥ 80% |  | ≥ 80%
CN1CCCN(Cc2ccc(-c3noc(C(F)(F)F)n3)cc2Cl)S1(=O)=O [Compound B-4, 2-[[2-chloro-4-[5-(trifluoromethyl)-1,2,4-oxadiazol-3-yl]phenyl]methyl]-6-methyl-1,2,6-thiadiazinane 1,1-dioxide] |  |  |  | ≥ 80%
